According to patent US20160220569A1, “CDK4/6 Inhibitor Dosage Formulations For The Protection Of Hematopoietic Stem And Progenitor Cells During Chemotherapy” (G1 Therapeutics, Inc., priority 2015, published 2016):
Like-named read-outs stand apart in the source and are kept apart here.

Assay: 14-day oral gavage toxicokinetic study in rats
Format: in vivo
Conditions: male, rat, plasma, po; for concentration at 8 h / concentration at 12 h / concentration at 24 h / concentration at […] / concentration at 0.5 h / concentration at 1 h / concentration at 2 h / concentration at 4 h: rats; for half-life: read-out: t½ (converted)
Procedure: Plasma was obtained from blood samples collected from rats in a composite sampling scheme, with 3 samples collected per sex, per dose, at each target collection time, as illustrated in Table 21 to Table 25. Samples were collected from the vehicle control group on Day 1 and Day 14 at 3 hour after administration. […] Blood samples were collected in tubes containing K3EDTA as an anticoagulant and placed on ice until processed to plasma via centrifugation. Samples were stored frozen at −80° C. until shipment to the bioanalytical laboratory for analysis.
The following parameters were determined:
Cmax: Maximum observed plasma concentration (ng/mL).
A value of 0 ng/mL was assigned to all values below the lower limit of quantitation (BLQ, <10.0 ng/mL).
AUC(0-inf): Area under the plasma concentration vs. time curve extrapolated from 0 to infinity (ng*h/mL), calculated as AUC(0-t)+AUC(t-inf) where AUC(t-inf) is calculated as last measurable concentration (CLast) divided by ke, where ke is the elimination rate constant determined by linear regression of the last three analytically measured points on the log plasma concentration vs. time curve. The selection criteria of the data points for inclusion in the calculation of ke required that at least three data points representing the terminal phase (after Tmax) were regressed and that R2≧0.850 when rounded.
CL: Clearance (L/h/kg), calculated as the dose divided by AUC(0-t).
Vd: Volume of distribution (L/kg), calculated as dose divided by the product of ke and AUC(0-inf).
Vdss: Steady state volume of distribution (L/kg), calculated as clearance […] mean residence time, where mean residence time is calculated as the area under the first moment curve divided by AUC(0-t).
t½: Elimination half-life (h), calculated as ln(2)/ke, where ke is the elimination rate constant determined by linear regression. Half-life was defined as not determined if regression criteria (specified in AUC(0-inf) above) were not met.
Cmax/Dose: Normalized Cmax, calculated as Cmax divided by total dose.
AUC/Dose: Normalized AUC, calculated as AUC(0-t) divided by total dose.
ii. Statistical Analysis Mean and standard deviation (SD) were calculated in Watson. Values of BLQ were assigned a value of 0 ng/mL for mean calculations. Concentration values and derived TK parameters were reported to three significant figures.

[1] = 15 mg/kg, oral 15 mg/kg, Study Day 1, Male
[2] = 15 mg/kg, oral 15 mg/kg, Study Day 14, Male
[3] = 30 mg/kg, oral 30 mg/kg, Study Day 1, Male

Q: With `CN1CCN(c2ccc(Nc3ncc4cc5n(c4n3)C3(CCCCC3)CNC5=O)nc2)CC1` [Compound 1, 2′-((5-(4-methylpiperazin-1-yl)pyridin-2-yl)amino)-7′,8′-dihydro-6′H-spiro[cyclohexane-1,9′-pyrazino[1′,2′:1,5]pyrrolo[2,3-d]pyrimidin]-6′-one] as the molecule, how does the concentration at 8 h (15 mg/kg, Mean Compound 1 Plasma Concentration, oral 15 mg/kg, Day 1, 8 h, Male) read?
A: Its concentration at 8 h is 1020 ng/mL.

Q: And the concentration at 12 h (15 mg/kg, Mean Compound 1 Plasma Concentration, oral 15 mg/kg, Day 1, 12 h, Male)?
A: The concentration at 12 h was 618 ng/mL.

Q: What about the concentration at 24 h (15 mg/kg, Mean Compound 1 Plasma Concentration, oral 15 mg/kg, Day 1, 24 h, Male) of the same molecule?
A: The concentration at 24 h was 84.5 ng/mL.

Q: And the concentration at […] (15 mg/kg, Mean Compound 1 Plasma Concentration, oral 15 mg/kg, Day 1, […], Male)?
A: Its concentration at […] is 35.6 ng/mL.

Q: And the concentration at 0.5 h (15 mg/kg, Mean Compound 1 Plasma Concentration, oral 15 mg/kg, Day 14, 0.5 h, Male)?
A: Its concentration at 0.5 h is 740 ng/mL.

Q: And the concentration at 1 h (15 mg/kg, Mean Compound 1 Plasma Concentration, oral 15 mg/kg, Day 14, 1 h, Male)?
A: Its concentration at 1 h is 842 ng/mL.

Q: And the concentration at 2 h (15 mg/kg, Mean Compound 1 Plasma Concentration, oral 15 mg/kg, Day 14, 2 h, Male)?
A: Its concentration at 2 h is 1320 ng/mL.

Q: What about the concentration at 4 h (15 mg/kg, Mean Compound 1 Plasma Concentration, oral 15 mg/kg, Day 14, 4 h, Male) of the same molecule?
A: Its concentration at 4 h is 1080 ng/mL.

Q: And the concentration at 8 h (15 mg/kg, Mean Compound 1 Plasma Concentration, oral 15 mg/kg, Day 14, 8 h, Male)?
A: Its concentration at 8 h is 1170 ng/mL.

Q: And the concentration at 12 h (15 mg/kg, Mean Compound 1 Plasma Concentration, oral 15 mg/kg, Day 14, 12 h, Male)?
A: Its concentration at 12 h is 626 ng/mL.

Q: What about the concentration at 24 h (15 mg/kg, Mean Compound 1 Plasma Concentration, oral 15 mg/kg, Day 14, 24 h, Male) of the same molecule?
A: Its concentration at 24 h is 60.6 ng/mL.

Q: What about the concentration at […] (15 mg/kg, Mean Compound 1 Plasma Concentration, oral 15 mg/kg, Day 14, […], Male) of the same molecule?
A: The concentration at […] was 107 ng/mL.

Q: And the AUC(0-inf) [1]?
A: Its AUC(0-inf) is 16000 ng·h/mL.

Q: And the AUC(0-t) [1]?
A: The AUC(0-t) was 15500 ng·h/mL.

Q: What about the Cmax [1] of the same molecule?
A: Its Cmax is 1160 ng/mL.

Q: And the Tmax [1]?
A: The Tmax was 4 h.

Q: And the half-life [1]?
A: The half-life was 4.39 h.

Q: What about the AUC(0-t) [2] of the same molecule?
A: Its AUC(0-t) is 16300 ng·h/mL.

Q: And the Cmax [2]?
A: The Cmax was 1320 ng/mL.

Q: What about the Tmax [2] of the same molecule?
A: The Tmax was 2 h.

Q: And the half-life [2]?
A: The half-life was 3.7 h.

Q: What about the concentration at 0.5 h (30 mg/kg, Individual Compound 1 Plasma Concentration, daily oral 30 mg/kg, Day 1, Male, 0.5 h) of the same molecule?
A: Its concentration at 0.5 h is 1450 ng/mL.

Q: And the concentration at 1 h (30 mg/kg, Individual Compound 1 Plasma Concentration, daily oral 30 mg/kg, Day 1, Male, 1 h)?
A: The concentration at 1 h was 1620 ng/mL.

Q: And the concentration at 2 h (30 mg/kg, Individual Compound 1 Plasma Concentration, daily oral 30 mg/kg, Day 1, Male, 2 h)?
A: The concentration at 2 h was 1810 ng/mL.

Q: And the concentration at 4 h (30 mg/kg, Individual Compound 1 Plasma Concentration, daily oral 30 mg/kg, Day 1, Male, 4 h)?
A: Its concentration at 4 h is 2660 ng/mL.

Q: What about the concentration at 8 h (30 mg/kg, Individual Compound 1 Plasma Concentration, daily oral 30 mg/kg, Day 1, Male, 8 h) of the same molecule?
A: The concentration at 8 h was 2000 ng/mL.

Q: And the concentration at 12 h (30 mg/kg, Individual Compound 1 Plasma Concentration, daily oral 30 mg/kg, Day 1, Male, 12 h)?
A: The concentration at 12 h was 1930 ng/mL.

Q: And the concentration at 24 h (30 mg/kg, Individual Compound 1 Plasma Concentration, daily oral 30 mg/kg, Day 1, Male, 24 h)?
A: Its concentration at 24 h is 280 ng/mL.

Q: And the concentration at 0.5 h (30 mg/kg, Individual Compound 1 Plasma Concentration, daily oral 30 mg/kg, Day 14, Male, 0.5 h)?
A: The concentration at 0.5 h was 977 ng/mL.

Q: And the concentration at 2 h (30 mg/kg, Individual Compound 1 Plasma Concentration, daily oral 30 mg/kg, Day 14, Male, 2 h)?
A: Its concentration at 2 h is 1630 ng/mL.

Q: What about the concentration at 4 h (30 mg/kg, Individual Compound 1 Plasma Concentration, daily oral 30 mg/kg, Day 14, Male, 4 h) of the same molecule?
A: The concentration at 4 h was 2080 ng/mL.

Q: What about the concentration at 8 h (30 mg/kg, Individual Compound 1 Plasma Concentration, daily oral 30 mg/kg, Day 14, Male, 8 h) of the same molecule?
A: The concentration at 8 h was 1750 ng/mL.

Q: What about the concentration at 12 h (30 mg/kg, Individual Compound 1 Plasma Concentration, daily oral 30 mg/kg, Day 14, Male, 12 h) of the same molecule?
A: Its concentration at 12 h is 1230 ng/mL.

Q: And the concentration at 24 h (30 mg/kg, Individual Compound 1 Plasma Concentration, daily oral 30 mg/kg, Day 14, Male, 24 h)?
A: The concentration at 24 h was 208 ng/mL.

Q: What about the concentration at […] (30 mg/kg, Individual Compound 1 Plasma Concentration, daily oral 30 mg/kg, Day 14, Male, […]) of the same molecule?
A: The concentration at […] was 197 ng/mL.

Q: What about the concentration at 0.5 h (30 mg/kg, Mean Compound 1 Plasma Concentration, oral 30 mg/kg, Day 1, 0.5 h, Male) of the same molecule?
A: Its concentration at 0.5 h is 1420 ng/mL.

Q: And the concentration at 1 h (30 mg/kg, Mean Compound 1 Plasma Concentration, oral 30 mg/kg, Day 1, 1 h, Male)?
A: The concentration at 1 h was 1400 ng/mL.

Q: What about the concentration at 2 h (30 mg/kg, Mean Compound 1 Plasma Concentration, oral 30 mg/kg, Day 1, 2 h, Male) of the same molecule?
A: Its concentration at 2 h is 1620 ng/mL.

Q: What about the concentration at 4 h (30 mg/kg, Mean Compound 1 Plasma Concentration, oral 30 mg/kg, Day 1, 4 h, Male) of the same molecule?
A: The concentration at 4 h was 2240 ng/mL.

Q: And the concentration at 8 h (30 mg/kg, Mean Compound 1 Plasma Concentration, oral 30 mg/kg, Day 1, 8 h, Male)?
A: Its concentration at 8 h is 1860 ng/mL.

Q: And the concentration at 24 h (30 mg/kg, Mean Compound 1 Plasma Concentration, oral 30 mg/kg, Day 1, 24 h, Male)?
A: The concentration at 24 h was 234 ng/mL.

Q: What about the concentration at […] (30 mg/kg, Mean Compound 1 Plasma Concentration, oral 30 mg/kg, Day 1, […], Male) of the same molecule?
A: Its concentration at […] is 208 ng/mL.

Q: And the concentration at 0.5 h (30 mg/kg, Mean Compound 1 Plasma Concentration, oral 30 mg/kg, Day 14, 0.5 h, Male)?
A: The concentration at 0.5 h was 993 ng/mL.

Q: What about the concentration at 1 h (30 mg/kg, Mean Compound 1 Plasma Concentration, oral 30 mg/kg, Day 14, 1 h, Male) of the same molecule?
A: Its concentration at 1 h is 1530 ng/mL.

Q: What about the concentration at 2 h (30 mg/kg, Mean Compound 1 Plasma Concentration, oral 30 mg/kg, Day 14, 2 h, Male) of the same molecule?
A: Its concentration at 2 h is 1590 ng/mL.

Q: And the concentration at 4 h (30 mg/kg, Mean Compound 1 Plasma Concentration, oral 30 mg/kg, Day 14, 4 h, Male)?
A: Its concentration at 4 h is 2030 ng/mL.

Q: What about the concentration at 8 h (30 mg/kg, Mean Compound 1 Plasma Concentration, oral 30 mg/kg, Day 14, 8 h, Male) of the same molecule?
A: The concentration at 8 h was 1880 ng/mL.

Q: What about the concentration at 12 h (30 mg/kg, Mean Compound 1 Plasma Concentration, oral 30 mg/kg, Day 14, 12 h, Male) of the same molecule?
A: The concentration at 12 h was 1300 ng/mL.

Q: What about the concentration at […] (30 mg/kg, Mean Compound 1 Plasma Concentration, oral 30 mg/kg, Day 14, […], Male) of the same molecule?
A: Its concentration at […] is 207 ng/mL.

Q: And the AUC(0-inf) [3]?
A: The AUC(0-inf) was 34700 ng·h/mL.

Q: What about the AUC(0-t) [3] of the same molecule?
A: The AUC(0-t) was 33000 ng·h/mL.

Q: And the Cmax [3]?
A: The Cmax was 2240 ng/mL.

Q: And the Tmax [3]?
A: The Tmax was 4 h.

Q: What about the half-life [3] of the same molecule?
A: Its half-life is 5.05 h.

Q: What about the AUC(0-inf) (30 mg/kg, oral 30 mg/kg, Study Day 14, Male) of the same molecule?
A: The AUC(0-inf) was 30700 ng·h/mL.
